Assay results taken from publication PMC5046105, “Improved affinity at the cost of decreased specificity: a recurring theme in PDZ-peptide interactions” (Scientific Reports, 2016).
Ends that are not written are not given here.

Experiments:
[1] = target: T1, pWT PDZ2 (pseudo wild type SAP97 PDZ2, I342W/C378A) (Homo sapiens, UniProt Q12959, C378A/I342W); experiment: Stopped-flow binding kinetics, peptide with pWT PDZ2; conditions: for Kd: Kd = koff/kon, ± propagated standard error; for Kd / koff: pH 7.5, 10 °C; for kon: Trp342 fluorescence, 1 µM PDZ, peptide 2–40 µM, N-acetylated peptide, 50 mM potassium phosphate pH 7.5, 10 °C; for kon / koff: value ± standard error; for koff: displacement of pre-formed complex (1 µM PDZ, 2 µM peptide) with 100 and 150 µM dansylated RRRETQV peptide
T1 construct: constituting SAP97 residues 311–407 and the mutations I342W and C372A; His-tagged lipoyl protein domain (N, cleaved yes); made in house
T1 sequence (Q12959 311-407 I342W/C378A): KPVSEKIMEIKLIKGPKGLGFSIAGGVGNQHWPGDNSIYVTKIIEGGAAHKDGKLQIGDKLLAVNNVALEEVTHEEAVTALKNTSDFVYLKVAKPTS
Procedure: (§1) The basic experimental parameters determined were the rate constants of association (kon) and dissociation (koff) for each peptide and for all PDZ variants, respectively, in a procedure described in Fig. 2 for the interaction between PDZØ9 and the EKKHTLL peptide as an example.
(§2) Figure 2 Determination of the two rate constants kon and koff for PDZØ9 binding to the EKKHTLL peptide. kon and koff were determined in separate experiments using stopped-flow spectroscopy and monitoring the change in Trp fluorescence upon binding. (a) The experimental trace was obtained by averaging of three individual experiments in which 11 μM of the EKKHTLL peptide was mixed with 1 μM PDZØ9. The trace was fitted to a single exponential function to obtain the observed rate constant, kobs. […] (c) In a displacement reaction a pre-formed complex between PDZØ9 (1 μM) and the EKKHTLL peptide (2 μM) was mixed with a large excess of dansyl-labeled peptide corresponding to the C-terminal […] of HPV18 E6 (150 μM). […] At high concentrations of dansylated peptide, none of the dissociated EKKHTLL will re-bind, and fitting to a single exponential function returns a kobs value which is equal to the dissociation rate constant, koff, of the pre-formed complex.
(§3) All of the stopped-flow experiments conducted in order to measure the rate constants for the peptide/PDZ interactions, were performed on an SX-20 MV stopped-flow spectrometer (Applied Photophysics Leatherhead, UK) at 10 °C in 50 mM potassium phosphate buffer, pH 7.5. Fluorescence was monitored using the change in emission of Trp342 in the PDZ variants (excitation at 280 nm; emission at 330 ± 30 nm). The peptides were N-acetylated (Ontores Biotechnologies) and the concentration of the respective stock solution was determined with either absorbance, quantitative amino acid analysis or direct detect (EMD Millipore). The rate constants of association, kon, and dissociation, koff, were determined in separate experiments. […] For each PDZ variant the kobs values were plotted versus the concentration of peptide and fitted to the general equation for a reversible bimolecular interaction[38][39] from which kon was derived. The koff was measured in a displacement experiment in which a pre-formed complex of PDZ variant (1 μM) and peptide (2 μM) was mixed with high concentrations of a dansylated RRRETQV-peptide (100, and 150 μM), which competes with the unlabelled peptide for binding to the PDZ. […] The kobs value at high peptide concentration is equal to the overall koff value, as described previously.

pWT PDZ2 K392M = target: T2, pWT PDZ2 K392M (Homo sapiens, UniProt Q12959, C378A/I342W/K392M); experiment: Stopped-flow binding kinetics, peptide with pWT PDZ2 K392M; conditions: for Kd: Kd = koff/kon, ± propagated standard error; for Kd / koff: pH 7.5, 10 °C; for kon: Trp342 fluorescence, 1 µM PDZ, peptide 2–40 µM, N-acetylated peptide, 50 mM potassium phosphate pH 7.5, 10 °C, value ± standard error (EKKHTLL: mean of two experiments); for koff: displacement of pre-formed complex (1 µM PDZ, 2 µM peptide) with 100 and 150 µM dansylated RRRETQV peptide, value ± standard error
T2 construct: constituting SAP97 residues 311–407 and the mutations I342W and C372A; His-tagged lipoyl protein domain (N, cleaved yes); made in house
T2 sequence (Q12959 311-407 I342W/C378A/K392M): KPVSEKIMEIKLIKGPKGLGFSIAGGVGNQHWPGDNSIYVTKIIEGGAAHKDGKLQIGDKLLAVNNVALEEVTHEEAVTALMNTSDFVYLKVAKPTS
Procedure: as §1, §2, §3

[2] = target: T3, PDZØ9 (pWT SAP97 PDZ2 L391F/K392M) (Homo sapiens, UniProt Q12959, C378A/I342W/K392M/L391F); experiment: Stopped-flow binding kinetics, peptide with PDZØ9; conditions: stopped-flow; for Kd: Kd = koff/kon, ± propagated standard error; for Kd / koff: pH 7.5, 10 °C; for koff: displacement of pre-formed complex (1 µM PDZ, 2 µM peptide) with 100 and 150 µM dansylated RRRETQV peptide; for koff / kon: value ± standard error; for kon: Trp342 fluorescence, 1 µM PDZ, peptide 2–40 µM, N-acetylated peptide, 50 mM potassium phosphate pH 7.5, 10 °C
T3 construct: constituting SAP97 residues 311–407 and the mutations I342W and C372A; His-tagged lipoyl protein domain (N, cleaved yes); made in house
T3 sequence (Q12959 311-407 I342W/C378A/L391F/K392M): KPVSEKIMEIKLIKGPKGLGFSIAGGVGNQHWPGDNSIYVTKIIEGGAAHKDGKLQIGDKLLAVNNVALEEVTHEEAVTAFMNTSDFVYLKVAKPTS
Procedure: as §1, §2, §3

pWT PDZ2 L391F = target: T4, pWT PDZ2 L391F (Homo sapiens, UniProt Q12959, C378A/I342W/L391F); experiment: Stopped-flow binding kinetics, peptide with pWT PDZ2 L391F; conditions: for Kd: Kd = koff/kon, ± propagated standard error; for Kd / koff: pH 7.5, 10 °C; for kon: Trp342 fluorescence, 1 µM PDZ, peptide 2–40 µM, N-acetylated peptide, 50 mM potassium phosphate pH 7.5, 10 °C; for kon / koff: value ± standard error; for koff: displacement of pre-formed complex (1 µM PDZ, 2 µM peptide) with 100 and 150 µM dansylated RRRETQV peptide
T4 construct: constituting SAP97 residues 311–407 and the mutations I342W and C372A; His-tagged lipoyl protein domain (N, cleaved yes); made in house
T4 sequence (Q12959 311-407 I342W/C378A/L391F): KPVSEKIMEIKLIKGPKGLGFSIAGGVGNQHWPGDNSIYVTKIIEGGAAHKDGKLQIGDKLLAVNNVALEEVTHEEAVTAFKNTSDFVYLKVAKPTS
Procedure: as §1, §2, §3

Substance	Kd [1] [nM]	kon [1] [M⁻¹ s⁻¹]	koff [1] [s⁻¹]	Kd (pWT PDZ2 K392M) [nM]	kon (pWT PDZ2 K392M) [M⁻¹ s⁻¹]	koff (pWT PDZ2 K392M) [s⁻¹]	Kd [2] [nM]	koff [2] [s⁻¹]	kon [2] [M⁻¹ s⁻¹]	Kd (pWT PDZ2 L391F) [nM]	kon (pWT PDZ2 L391F) [M⁻¹ s⁻¹]	koff (pWT PDZ2 L391F) [s⁻¹]
Ac-PGKETQL [PGKETQL]	2800 ± 100	1.8e+07 ± 600000	51 ± 1.8	2700 ± 200	1.8e+07 ± 600000	48 ± 2.3	240 ± 4	3.9 ± 0.03	1.6e+07 ± 200000	250 ± 4	2e+07 ± 300000	5 ± 0.02
Ac-NSKETVV [NSKETVV]	660 ± 7	1.3e+07 ± 100000	8.6 ± 0.07	790 ± 10	9.7e+06 ± 70000	7.7 ± 0.18	160 ± 2	1.6 ± 0.01	1e+07 ± 70000	150 ± 1	1.3e+07 ± 90000	1.9 ± 0.01
Ac-TSRETDL [TSRETDL]	2200 ± 70	3.3e+07 ± 1.1e+06	71 ± 0.5	4100 ± 200	1.5e+07 ± 500000	62 ± 0.9	170 ± 4	2.6 ± 0.04	1.5e+07 ± 200000	210 ± 6	1.8e+07 ± 400000	3.8 ± 0.06
Ac-RSISTDV [RSISTDV]	1200 ± 30	2.1e+07 ± 500000	26 ± 0.3	1800 ± 40	1.7e+07 ± 300000	31 ± 0.3	250 ± 5	4.3 ± 0.06	1.7e+07 ± 200000	180 ± 3	2.4e+07 ± 300000	4.3 ± 0.05
Ac-EKKHTLL [EKKHTLL]	9300 ± 400	1.2e+07 ± 500000	112 ± 1.2	14000 ± 2000	1.1e+07 ± 1.7e+06	157 ± 2	560 ± 5	7.9 ± 0.04	1.4e+07 ± 100000	650 ± 7	1.1e+07 ± 80000	7.1 ± 0.05
